Reference: patent publication US20170226139A1, “CRYSTALLINE SALTS OF (Z)-O-OCTADEC-9-EN-1-YL O,O-DIHYDROGEN PHOSPHOROTHIOATE” (priority 2013, published 2017)
Where two headings read alike, the source gives them in different places. Values belong to the compound of their own block, whether it stands above or below them.

Columns and labels:
Beagle dogs = assay: Single-dose subcutaneous toxicity in dogs; format: in vivo; conditions: 1 mL/kg of a 6-mg/mL concentration of L-lysine; same animals
Description: One group of one male and one female Beagle dogs received single escalating subcutaneous doses of Rx100.Lysine at 10 and 1 (female)/1.52 (male) mg/kg. […] Parameters evaluated included clinical signs, body weight, and gross pathology. The male and female dog survived until scheduled necropsy on Day 15. Administration of Rx100 had no effect on body weight or general health of the animals. Noteworthy clinical observations were confined to skin and behavior effects. Both animals scratched at the dose site, likely contributing to observations of redness at the dose site. Swelling and a thickened/raised area were also observed during the observation period. Clinical observations were sufficient to warrant the injection of diphenhydramine. […] Following injection of the L-lysine component of the formulation at an independent site, redness, scratching, or swelling was not seen.

[1] = Rx100 salt screening (solid formation, XRPD wet/dry, filterability, exposure to RH > 90%); conditions: for Filterability / Crystallinity / Polymorphic behavior: Rx100 salt formed with the named base; for Crystallinity / Polymorphic behavior: XRPD; for XRPD, wet: stage 2 round 2, Rx100 free acid + 1 eq base (label = base); for All solvents were evaporated to get a gel: label = base, nature/filterability of the solid
Procedure: We designed a complex and unconventional screening regime to screen for Rx100 crystalline salts. […] The screening regime is described as follows.
Rx100.FA in the form of a viscous liquid and eighteen counter ions were used as starting materials. These counter ions are listed and numbered in Table 4. The numbers will be used for grouping the resulting solids. The screening was performed in three stages.
Stage one (1) included screening 11 counter ions: sodium hydroxide, ammonium hydroxide, ethylenediamine, diethylamine, tromethamine (Tris), hydroxyethyl morpholine, benzathine, dimethylamino ethanol, L-Arginine, L-Lysine, L-Histidine. […] In stage 1, we performed three rounds of experiment.
In the first round of experiment, four (4) solvent systems, i.e., isopropyl alcohol (IPA), diethyl ether (DEE), IPA:water (a mixture at a volume ratio of 95:5) and tetrahydrofuran (THF), were used. Thus in this first round of screening, 44 individual base-acid reactions were conducted in 44 vials.
First, Rx100.FA and each of the bases were mixed in a vial. […] In each of the 44 vials, 211.1 μL of the prepared liquid, which was equivalent to about 35 mg of Rx100.FA, was first dispensed. Then, one equivalent (molar) of each of the 11 bases was dispensed in its corresponding vial. For example, the base sodium hydroxide was added to vials 1, 12, 23 and 34. Similarly, L-histidine was added to vials 11, 22, 33 and 44. Observations were recorded upon addition of the bases in to Rx100.FA.
Second, the solvent in each mixture was depleted. All vials containing the mixtures of Rx100.FA and each of the bases were left under moderate vacuum and nitrogen bleed at room temperature overnight to evaporate the solvent. The vials were then kept under full vacuum for about an hour to make sure the solvents (ethanol and water) are evaporated. Observations on formation of solid upon evaporation were recorded.
Third, solvents were added in each vial to induce solid formation. In each vial, a stir bar and one of the four selected solvents (each 5 volumes with respect to the Rx100.FA) were added. The vials were then capped. IPA was added to the first set of 11 vials (1-11), DEE added to the second set of 11 vials (12-22), IPA:water added to the third set of 11 vials (23-33), and THF added to the fourth set of 11 vials (34-44). The vials were left at room temperature while stirring for at least 5 hours. Observations were recorded.
The first set of XRPD analyses were recorded as “wet” samples. The solids were dried under vacuum for 1 hour and at room temperature followed by XRPD as “dry” sample. The dry solid was then exposed to relative humidity of more than 90% overnight followed by XRPD analysis. For XRPD naming, a number and a letter were used. The number refers to the counter ion and the letter refers to the chronological discovered XRPD pattern of that particular salt.
In the second round of experiment of stage one, another four (4) solvent systems, i.e., methanol (MeOH), tert-Butyl methyl ether (tBME), ethyl acetate and toluene, were used in the same 44 vials as used in the first round experiment. The solvents in all 44 vials from the first round were evaporated to dryness under vacuum and nitrogen bleed. The 4 new solvents were then added into the vials. Methanol was added to the first set of 11 vials (1-11), tBME added to the second set of 11 vials (12-22), Ethyl acetate added to the third set of 11 vials (23-33), and Toluene added to the fourth set of 11 vials (34-44). The same procedure as in the first round of experiment was followed for these new solvents and samples were taken for XRPD analysis.
In the third round of experiment, effect of base equivalence was assessed. […] After addition of the extra base, the previous solvent was evaporated and new solvents added.

[2] = Short term (24 hour) slurry tests, XRPD of wet and dried solids; format: physicochemical; conditions: 24 hour slurry; Water; one cell for 25° C. and 50° C.; starting form A
Procedure: Second, short term slurry tests were performed. Rx100.L-Lysine salt was slurried for a minimum of 24 hours in 15 different solvent systems at two different temperatures (25 and 50° C.) in an attempt to provide information for crystallization experiments and design of polymorph screening experiments. A 48 position Chemglass reaction block was used for heating and stirring the slurries which were in 2 mL HPLC vials. After the due time, vials were centrifuged and the wet solids were used for X-ray diffraction. […]

[3] = Gravimetric moisture sorption analysis, with XRPD afterwards; format: physicochemical; conditions: lot 1980-18-1; 95% RH; reversible
Procedure: Moisture sorption analysis of the Rx100.L-Lysine salt was performed by equilibrating the sample at 25° C. and 50% RH to simulate ambient lab conditions. Humidity then decreased to 0% RH, increased from 0 to 95% RH, reduced from 95 to 0% RH, increased from 0 to 95% RH and then decreased from 95 to 50% RH.

[4] = Characterization of scaled-up Rx100.L-Lysine salt (XRPD, DSC, TGA, 1H NMR, Karl Fischer, optical microscopy); format: physicochemical; conditions: scaled-up lot 1980-18-1
Procedure: The Rx100.L-Lysine salts were dried overnight under vacuum at 35° C. and then characterized by XRPD, DSC, TGA, ^1HNMR, Karl Fischer (KF), optical microscopy and moisture sorption assays.
Ratio of Rx-100 to L-Lysine in the salt was calculated based on the ^1HNMR integration ratio of set-A protons to set-B protons of the salt. Set-A protons are from Rx-100 part of the molecule and set-B protons are from L-Lysine part of the molecule. These two set of protons were selected because they are very well separated from rest of the protons in the ^1HNMR of the molecule. As shown in the molecular scheme in FIG. 39, set-A protons correspond to two olefinic protons of Rx100 and appear at […] in the ^1H NMR. In contrast, set-B protons correspond to methylene of lysine part and appear at […]. Comparison of ^1H NMR integration values for set-A and set-B protons indicates the ratio of Rx100 to lysine as 1:1.5.
The exhibition of birefringence observed by optical microscopy confirmed the crystallinity observed by XRPD

Human LPA1 = molecular target: T1, Human LPA1 (Homo sapiens, UniProt Q92633); assay: Calcium-mobilization assay (FURA-2), human LPA1 transfected cells; format: cell-based; conditions: mean; for EC50: read-out: EC50
T1 construct: expressed in transfected cells; host or cells: mouse embryonic fibroblasts (MEF)
T1 sequence (Q92633 whole entry): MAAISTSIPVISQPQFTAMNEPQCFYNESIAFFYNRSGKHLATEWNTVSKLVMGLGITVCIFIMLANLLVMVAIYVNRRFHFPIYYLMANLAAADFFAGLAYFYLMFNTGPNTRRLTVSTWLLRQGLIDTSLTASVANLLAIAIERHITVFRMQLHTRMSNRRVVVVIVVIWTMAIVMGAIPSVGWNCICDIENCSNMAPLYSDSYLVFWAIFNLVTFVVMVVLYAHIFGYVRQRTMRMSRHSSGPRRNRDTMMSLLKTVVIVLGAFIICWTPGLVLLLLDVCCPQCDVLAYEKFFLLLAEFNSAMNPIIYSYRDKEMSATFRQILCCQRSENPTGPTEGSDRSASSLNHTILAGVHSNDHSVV
Procedure: (§1) We investigated structure-activity relationships across species, LPAR subtypes and between Rx100 and two known process impurities encountered in manufacture: Rx103 (‘E’ isomer) and Rx200 (oleyl phosphate and impurity, which can be an Rx100 degradant along with oleyl alcohol). Rx100, Rx103, Rx200 and native LPA were investigated at different human LPAR subtypes. In addition, the activity of these compounds was evaluated at LPA2 receptors from the rhesus, rat and mouse species. Human LPA1/2/3 subtypes were transfected into mouse embryonic fibroblasts (MEF) or rat hepatoma cells (RH7777)—both of which are normally non-responsive or null to LPA. Human LPA4 was transfected into Chinese hamster ovary (CHO) cells and LPA5 into the B103 neuroblastoma cell line. […] The B103 rat neuroblastoma cell line is endogenously nonresponsive to LPA but expresses heterologous LPA5 receptors well. […] LPAR activation elicits a G-protein-mediated transient rise in intracellular calcium level that is proportional to the concentration of LPA applied. The intracellular calcium level was quantified by the calcium-selective fluorescent indicator FURA-2 (e.g., increased intracellular calcium surge=increased fluorescence).

[5] = molecular target: LPA2 receptors from the rhesus (Macaca mulatta, UniProt I2CXV3); assay: Calcium-mobilization assay (FURA-2), rhesus LPA2; format: cell-based; conditions: LPA2 DKO MEF, rhesus, mean
Chain of LPA2 receptors from the rhesus (I2CXV3 1-351): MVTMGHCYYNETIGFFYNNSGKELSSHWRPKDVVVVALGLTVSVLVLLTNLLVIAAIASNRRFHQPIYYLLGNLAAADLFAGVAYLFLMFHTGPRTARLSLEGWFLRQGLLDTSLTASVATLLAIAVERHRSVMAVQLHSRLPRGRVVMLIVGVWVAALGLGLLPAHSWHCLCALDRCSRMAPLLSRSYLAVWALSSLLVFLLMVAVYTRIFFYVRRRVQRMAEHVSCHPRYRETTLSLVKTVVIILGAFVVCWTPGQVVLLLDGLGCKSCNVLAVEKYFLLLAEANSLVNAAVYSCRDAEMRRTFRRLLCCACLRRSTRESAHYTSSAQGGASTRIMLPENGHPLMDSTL
Procedure: as §1

[6] = molecular target: T2, LPA2 receptors from the mouse (Mus musculus, UniProt Q9JL06); assay: Calcium-mobilization assay (FURA-2), mouse LPA2; format: cell-based; conditions: LPA2 DKO MEF, mouse, mean
T2 construct: expressed in transfected cells
T2 sequence (Q9JL06 whole entry): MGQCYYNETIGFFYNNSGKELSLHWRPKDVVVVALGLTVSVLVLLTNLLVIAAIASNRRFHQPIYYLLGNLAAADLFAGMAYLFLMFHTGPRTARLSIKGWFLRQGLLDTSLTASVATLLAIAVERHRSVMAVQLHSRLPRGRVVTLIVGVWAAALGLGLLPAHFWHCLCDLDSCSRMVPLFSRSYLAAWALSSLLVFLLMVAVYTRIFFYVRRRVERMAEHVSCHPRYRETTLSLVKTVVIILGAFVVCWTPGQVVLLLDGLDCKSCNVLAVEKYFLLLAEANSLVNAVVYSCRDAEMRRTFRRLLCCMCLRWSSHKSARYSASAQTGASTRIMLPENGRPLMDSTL
Procedure: as §1

[7] = molecular target: LPA2 receptors from the rat (Rattus norvegicus, UniProt A0ABK0LT65); assay: Calcium-mobilization assay (FURA-2), rat LPA2; format: cell-based; conditions: LPA2 DKO MEF, rat, mean
Chain of LPA2 receptors from the rat (A0ABK0LT65 1-348): as the sequence (Q9JL06 whole entry) above, with A153V, A189V, Y211F, M310T, S316H, R321H, A324S, Q327R, R341H counted along it
Procedure: as §1

Control CHO = assay: Calcium-mobilization assay, untransfected Control CHO cells; format: cell-based, Chinese hamster; conditions: Control CHO (untransfected; endogenously expresses LPA1)
Procedure: as §1

Compound: NCCCC[C@H](N)C(=O)O [L-lysine component, L-lysine]
tolerability of subcutaneous injection (Beagle dogs): well tolerated

Compound: CCCCCCCC/C=C\CCCCCCCCOP(O)(O)=S.NCCN [Rx100 Ethylenediamine salt]
Stability at high humidity [1]: stable at high humidity
Filterability [1]: filterable
Crystallinity [1]: showed crystallinity
Polymorphic behavior [1]: Creamy/oily on XRPD
Crystallinity ([1]; listed as Ethyldiamine): yes
Filterability ([1]; listed as Ethyldiamine): yes

Compound: CCCCCCCC/C=C\CCCCCCCCOP(O)(O)=S.NCCCC[C@H](N)C(=O)O [Rx100. L-Lysine Salt]
Resulting Form [2]: Dissolved

Compound: CCCCCCCC/C=C\CCCCCCCCOP(O)(O)=S.NCCCC[C@H](N)C(=O)O [Rx100. L-Lysine salt]
Moisture Sorption [Wt. % at 95% RH] [3]: 20.6 Wt. %
KF [Wt % water] [4]: 1.8 Wt % water
Optical Microscopy [4]: Birefringent
TGA [% Wt. loss] [4]: 1.1 % Wt. loss
XRPD [Form] [4]: Crystalline

Compound: CCCCCCCC/C=C\CCCCCCCCOP([O-])(O)=S.[Na+] [Sodium]
Filterability [1]: no
Crystallinity [1]: yes
Polymorphic behavior [1]: Polymorphic on XRPD

Compound: NC(CO)(CO)CO [Tromethamine]
Filterability [1]: no
Crystallinity [1]: no
Polymorphic behavior [1]: Oily on XRPD
RH > 90% overnight (XRPD pattern or state after exposure) ([1]; stage 1, third round, 2.1 eq of base, listed as 4-16): 5-A + Tris

Compound: Ca(OH)2
XRPD, wet ([1]; Ethyl acetate): Calcium
XRPD, wet ([1]; IPA:water (1:1)): Calcium

Compound: L-Arginine
Filterability [1]: yes*
Crystallinity [1]: yes
Polymorphic behavior [1]: Greasy on XRPD

Filterability [1]: yes
Crystallinity [1]: yes
Polymorphic behavior [1]: Multiple patterns on XRPD
Solid upon evaporation (Y/N) ([1]; stage 3, 35 mg Rx100 free acid + base (label = base), 1.05 eq, L-lysine 2.00 eq): Gel
All solvents were evaporated to get a gel ([1]; stage 3, 1.05 eq, L-lysine 2.00 eq, solvent MeOH:Water [9:1]): Greasy.
All solvents were evaporated to get a gel ([1]; stage 3, 1.05 eq, L-lysine 2.00 eq, solvent MeOH): Greasy.
Compound: Piperazine

Emax (% of LPA) (Human LPA1; LPA1 DKO MEF, human): 100 % of LPA
EC50 (Human LPA1; LPA1 DKO MEF, human): 0.354 µM
Emax (% of LPA) (Human LPA1; LPA1 RH7777, human): 100 % of LPA
EC50 (Human LPA1; LPA1 RH7777, human): 0.028 µM
Emax (% of LPA) [5]: 100 % of LPA
EC50 ([5]; read-out: EC50): 0.0013 µM
Emax (% of LPA) [6]: 100 % of LPA
EC50 ([6]; read-out: EC50): 0.0044 µM
Emax (% of LPA) [7]: 100 % of LPA
EC50 ([7]; read-out: EC50): 0.0017 µM
Compound: lysophosphatidic acid [LPA, reference compound]
Emax (% of LPA) (Control CHO): 12%
EC50 (Control CHO; read-out: EC50): 0.605 µM
